Results published in paper PMC4527344 (Tetrahedron letters, 2015).

Tested on: M. tuberculosis

In the case of `CCOC(=O)CSc1nc(N)c2c3c(sc2n1)CC(C(C)(C)C)CC3` (stereo not shown) [CD117], the CD117-resistant mutants obtained is reported as “unable to obtain CD117-resistant mutants”.
